Test results from paper PMC3961306, “Comparison of the Cancer Gene Targeting and Biochemical Selectivities of All Targeted Kinase Inhibitors Approved for Clinical Use” (PLoS ONE, 2014).

Tests used:
Experiment in all cases: Kinase profiling in a biochemical assay panel (mobility shift assays and ELISA), %-inhibition at 1 μM; selectivity entropy
[1] = molecular target: panel of more than 300 wild-type and mutant kinases (313 kinase panel) (Homo sapiens, UniProt O94804)
[2] = molecular target: panel of more than 300 wild-type and mutant kinases (313 kinase panel) (Homo sapiens, UniProt P07332)
[3] = molecular target: panel of more than 300 wild-type and mutant kinases (313 kinase panel) (Homo sapiens, UniProt P29376)
[4] = molecular target: panel of more than 300 wild-type and mutant kinases (313 kinase panel) (Homo sapiens, UniProt Q05397); conditions: kinase FAK; compound at 1 μM
[5] = molecular target: T1, panel of more than 300 wild-type and mutant kinases (313 kinase panel) (Homo sapiens, UniProt Q08881)
T1 sequence (Q08881 1-620): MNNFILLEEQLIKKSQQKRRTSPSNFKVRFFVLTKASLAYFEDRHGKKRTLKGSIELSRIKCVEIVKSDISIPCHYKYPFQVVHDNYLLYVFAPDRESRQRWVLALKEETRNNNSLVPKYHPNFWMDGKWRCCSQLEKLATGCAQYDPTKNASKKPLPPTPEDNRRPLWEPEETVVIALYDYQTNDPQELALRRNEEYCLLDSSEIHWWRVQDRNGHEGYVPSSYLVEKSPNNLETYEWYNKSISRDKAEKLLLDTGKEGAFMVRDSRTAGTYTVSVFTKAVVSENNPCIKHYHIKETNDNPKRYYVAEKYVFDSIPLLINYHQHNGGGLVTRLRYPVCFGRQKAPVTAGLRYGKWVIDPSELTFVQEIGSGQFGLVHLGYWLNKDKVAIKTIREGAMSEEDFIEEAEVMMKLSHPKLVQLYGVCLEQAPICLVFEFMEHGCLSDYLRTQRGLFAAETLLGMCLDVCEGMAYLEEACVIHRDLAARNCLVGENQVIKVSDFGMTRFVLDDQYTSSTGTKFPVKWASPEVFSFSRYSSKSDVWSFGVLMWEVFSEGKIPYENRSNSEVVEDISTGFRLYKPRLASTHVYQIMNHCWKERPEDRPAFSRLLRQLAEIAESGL

[6] = molecular target: T2, panel of more than 300 wild-type and mutant kinases (313 kinase panel) (Homo sapiens, UniProt Q12852)
T2 sequence (Q12852 1-859): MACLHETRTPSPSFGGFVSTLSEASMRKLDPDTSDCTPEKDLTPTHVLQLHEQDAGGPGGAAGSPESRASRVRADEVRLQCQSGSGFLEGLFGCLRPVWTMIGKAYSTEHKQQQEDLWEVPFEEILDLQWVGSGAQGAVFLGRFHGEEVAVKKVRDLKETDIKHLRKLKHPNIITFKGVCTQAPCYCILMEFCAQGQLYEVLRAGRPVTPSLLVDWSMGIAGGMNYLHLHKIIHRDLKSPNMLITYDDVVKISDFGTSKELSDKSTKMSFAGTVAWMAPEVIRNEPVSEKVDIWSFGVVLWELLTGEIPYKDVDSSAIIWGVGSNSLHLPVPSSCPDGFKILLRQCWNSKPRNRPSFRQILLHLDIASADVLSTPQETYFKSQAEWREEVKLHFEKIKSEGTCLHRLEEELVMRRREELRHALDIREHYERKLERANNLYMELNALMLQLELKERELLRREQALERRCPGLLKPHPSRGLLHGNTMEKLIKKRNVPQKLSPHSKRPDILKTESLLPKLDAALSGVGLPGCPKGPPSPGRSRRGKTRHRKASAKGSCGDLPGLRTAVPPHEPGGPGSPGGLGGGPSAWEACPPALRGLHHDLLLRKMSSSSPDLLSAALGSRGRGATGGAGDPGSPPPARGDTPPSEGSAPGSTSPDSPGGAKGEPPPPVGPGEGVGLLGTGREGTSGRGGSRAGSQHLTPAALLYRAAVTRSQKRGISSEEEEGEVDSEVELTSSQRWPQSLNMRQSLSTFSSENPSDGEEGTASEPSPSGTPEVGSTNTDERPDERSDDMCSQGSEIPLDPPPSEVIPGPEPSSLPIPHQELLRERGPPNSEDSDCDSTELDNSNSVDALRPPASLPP

[7] = molecular target: panel of more than 300 wild-type and mutant kinases (313 kinase panel) (Homo sapiens, UniProt Q13464)
[8] = molecular target: panel of more than 300 wild-type and mutant kinases (313 kinase panel) (Homo sapiens, UniProt Q13555)
[9] = molecular target: panel of more than 300 wild-type and mutant kinases (313 kinase panel) (Homo sapiens, UniProt Q9NYA1)

Chain of panel of more than 300 wild-type and mutant kinases (313 kinase panel) (Homo sapiens, UniProt O94804) (O94804 whole entry, change not shown): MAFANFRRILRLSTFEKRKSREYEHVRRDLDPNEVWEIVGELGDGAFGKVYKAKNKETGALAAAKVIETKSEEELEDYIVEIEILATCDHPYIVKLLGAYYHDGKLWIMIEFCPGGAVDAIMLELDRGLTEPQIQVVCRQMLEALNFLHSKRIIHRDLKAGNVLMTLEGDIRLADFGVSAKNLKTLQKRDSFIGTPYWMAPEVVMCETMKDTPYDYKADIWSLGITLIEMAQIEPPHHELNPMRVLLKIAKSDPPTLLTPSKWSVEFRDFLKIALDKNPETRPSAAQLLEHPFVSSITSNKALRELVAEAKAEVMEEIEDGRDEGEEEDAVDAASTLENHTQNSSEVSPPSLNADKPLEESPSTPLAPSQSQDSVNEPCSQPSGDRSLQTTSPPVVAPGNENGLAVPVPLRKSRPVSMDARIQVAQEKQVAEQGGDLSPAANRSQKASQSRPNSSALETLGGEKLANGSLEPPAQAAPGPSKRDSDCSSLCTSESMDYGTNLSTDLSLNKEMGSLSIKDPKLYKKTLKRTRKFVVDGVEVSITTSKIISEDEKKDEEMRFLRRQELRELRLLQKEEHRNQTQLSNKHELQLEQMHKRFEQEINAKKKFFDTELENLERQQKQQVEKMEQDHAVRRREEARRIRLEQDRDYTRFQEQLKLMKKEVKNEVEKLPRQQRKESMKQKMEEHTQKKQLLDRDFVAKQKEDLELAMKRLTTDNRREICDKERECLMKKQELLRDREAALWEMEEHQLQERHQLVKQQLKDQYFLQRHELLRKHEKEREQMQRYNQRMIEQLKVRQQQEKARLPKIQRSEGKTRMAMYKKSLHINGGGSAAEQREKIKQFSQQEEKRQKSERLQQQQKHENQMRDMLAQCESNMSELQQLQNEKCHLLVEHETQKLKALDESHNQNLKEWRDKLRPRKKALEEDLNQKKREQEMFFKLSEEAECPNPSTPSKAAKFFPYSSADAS

| SMILES | %-inhibition of LOK ([1]; kinase LOK, compound at 1 μM) | %-inhibition of FES ([2]; kinase FES, compound at 1 μM) | %-inhibition of LTK ([3]; kinase LTK, compound at 1 μM) | %-inhibition of FAK [4] | %-inhibition of ITK ([5]; kinase ITK, compound at 1 μM) | %-inhibition of DLK ([6]; kinase DLK, compound at 1 μM) | %-inhibition of ROCK1 ([7]; kinase ROCK1, 1 μM) | %-inhibition, CaMK2γ ([8]; kinase CaMK2γ, 1 μM compound) | %-inhibition of SPHK1 ([9]; kinase SPHK1, 1 μM) | %-inhibition of DLK ([6]; 1 µM) | %-inhibition of ROCK1 ([7]; 1 µM) | %-inhibition of LOK ([1]; 1 µM) | %-inhibition of FES ([2]; 1 µM) | %-inhibition of LTK ([3]; 1 µM) | %-inhibition of ITK ([5]; 1 µM) | %-inhibition, CaMK2γ ([8]; 1 µM) | %-inhibition of SPHK1 ([9]; 1 µM) |
| --- | --- | --- | --- | --- | --- | --- | --- | --- | --- | --- | --- | --- | --- | --- | --- | --- | --- |
| CO[C@H]1C[C@@H]2CC[C@@H](C)[C@@](O)(O2)C(=O)C(=O)N2CCCC[C@H]2C(=O)O[C@H]([C@H](C)C[C@@H]2CC[C@@H](OC(=O)C(C)(CO)CO)[C@H](OC)C2)CC(=O)[C@H](C)/C=C(\C)[C@@H](O)[C@@H](OC)C(=O)[C@H](C)C[C@H](C)/C=C/C=C/C=C/1C [temsirolimus] | -5% | -4.68% | -10% | -5.48% | -1.7% | -6% | -0.679% | -14% | -14% |  |  |  |  |  |  |  |  |
| CNC(=O)c1cc(Oc2ccc(NC(=O)Nc3ccc(Cl)c(C(F)(F)F)c3)c(F)c2)ccn1 [regorafenib] | 80% | -0.247% | -1.56% | -1.14% | 2.43% | -13% | 11% | -13% | -14% |  |  |  |  |  |  |  |  |
| CO[C@H]1C[C@@H]2CC[C@@H](C)[C@@](O)(O2)C(=O)C(=O)N2CCCC[C@H]2C(=O)O[C@H]([C@H](C)C[C@@H]2CC[C@@H](OCCO)[C@H](OC)C2)CC(=O)[C@H](C)/C=C(\C)[C@@H](O)[C@@H](OC)C(=O)[C@H](C)C[C@H](C)/C=C/C=C/C=C/1C [everolimus] | -9% | -2.38% | -12% | -4% | -3.61% | -5% | -3.7% | -16% | -16% |  |  |  |  |  |  |  |  |
| COc1cc2nccc(Oc3ccc(NC(=O)C4(C(=O)Nc5ccc(F)cc5)CC4)cc3)c2cc1OC [cabozantinib] | 96% | 39% | 61% | 10% | 16% | 36% | 1.28% | -8% | -12% |  |  |  |  |  |  |  |  |
| Cc1nc(Nc2ncc(C(=O)Nc3c(C)cccc3Cl)s2)cc(N2CCN(CCO)CC2)n1 [dasatinib] |  |  |  |  |  | 20% |  | -3.57% |  |  |  |  |  |  |  |  |  |
| COc1cc2c(Nc3ccc(Br)cc3F)ncnc2cc1OCC1CCN(C)CC1 [vandetanib] | 92% | -3.7% |  | -2.11% | 20% | 20% | -0.226% | -13% | -13% |  |  |  |  |  |  |  |  |
| CC(C)(C)c1nc(-c2cccc(NS(=O)(=O)c3c(F)cccc3F)c2F)c(-c2ccnc(N)n2)s1 [dabrafenib] |  | 2.29% | 2.67% | 13% | 49% | -10% |  | -5.47% | -18% |  |  |  |  |  |  |  |  |
| Cc1ccc(Nc2nccc(N(C)c3ccc4c(C)n(C)nc4c3)n2)cc1S(N)(=O)=O [pazopanib] | 70% |  | 27% | 46% | 28% | 40% | -1.24% | 0.188% | 1.19% |  |  |  |  |  |  |  |  |
| N#CC[C@H](C1CCCC1)n1cc(-c2ncnc3[nH]ccc23)cn1 [ruxolitinib] | 3.51% | 3% | 97% | -1% | 30% |  |  | 56% | -15% | -0.311% | 66% |  |  |  |  |  |  |
| C[C@@H](Oc1cc(-c2cnn(C3CCNCC3)c2)cnc1N)c1c(Cl)ccc(F)c1Cl [crizotinib] | 98% |  |  | 90% | 63% | 86% | 3.39% | -10% | -14% |  |  |  |  |  |  |  |  |
| CN(C)C/C=C/C(=O)Nc1cc2c(Nc3ccc(F)c(Cl)c3)ncnc2cc1O[C@H]1CCOC1 [afatinib] |  |  |  |  |  |  |  |  | -2% |  |  |  |  |  |  |  |  |
| CCCS(=O)(=O)Nc1ccc(F)c(C(=O)c2c[nH]c3ncc(-c4ccc(Cl)cc4)cc23)c1F [vemurafenib] | -1% | 18% | 2.6% | -3.55% | 3% | 8% | 1.28% | -10% | -11% |  |  |  |  |  |  |  |  |
| O=S(=O)(c1cccc2cnccc12)N1CCCNCC1 [fasudil] | 11% | -3.78% | -3.76% | -4% | -9% | -11% | 83% | -3.38% | -15% |  |  |  |  |  |  |  |  |
| C#Cc1cccc(Nc2ncnc3cc(OCCOC)c(OCCOC)cc23)c1 [erlotinib] |  |  |  |  |  |  |  |  |  | -1.89% | 1.9% | 93% | 8.5% | 41% | 6.51% | 3% | -14% |
| COc1cc(Nc2c(C#N)cnc3cc(OCCCN4CCN(C)CC4)c(OC)cc23)c(Cl)cc1Cl [bosutinib] |  |  | 59% | 22% | 13% | 77% | 1.43% |  | -23% |  |  |  |  |  |  | 8% |  |
| CCN(CC)CCNC(=O)c1c(C)[nH]c(/C=C2\C(=O)Nc3ccc(F)cc32)c1C [sunitinib] | 92% |  | 81% |  |  |  | 9% |  |  |  |  |  |  |  |  |  |  |
| Cc1ccc(C(=O)Nc2ccc(CN3CCN(C)CC3)c(C(F)(F)F)c2)cc1C#Cc1cnc2cccnn12 [ponatinib] |  |  | 85% |  | 86% | 84% | 39% |  | -20% |  |  |  |  |  |  |  |  |
